Common to all, as to assay: IP1 accumulation
Holding throughout (assay type): cell-based
What all share (conditions): mean ± S.E.M.; for Emax: IP1 maximal response, SEM

One experiment deals with T1, hCTR E294A (Homo sapiens, UniProt P30988, E294A).
T1 construct: c-Myc (N); expressed in transfected cells
T1 sequence (P30988 25-474 E294A): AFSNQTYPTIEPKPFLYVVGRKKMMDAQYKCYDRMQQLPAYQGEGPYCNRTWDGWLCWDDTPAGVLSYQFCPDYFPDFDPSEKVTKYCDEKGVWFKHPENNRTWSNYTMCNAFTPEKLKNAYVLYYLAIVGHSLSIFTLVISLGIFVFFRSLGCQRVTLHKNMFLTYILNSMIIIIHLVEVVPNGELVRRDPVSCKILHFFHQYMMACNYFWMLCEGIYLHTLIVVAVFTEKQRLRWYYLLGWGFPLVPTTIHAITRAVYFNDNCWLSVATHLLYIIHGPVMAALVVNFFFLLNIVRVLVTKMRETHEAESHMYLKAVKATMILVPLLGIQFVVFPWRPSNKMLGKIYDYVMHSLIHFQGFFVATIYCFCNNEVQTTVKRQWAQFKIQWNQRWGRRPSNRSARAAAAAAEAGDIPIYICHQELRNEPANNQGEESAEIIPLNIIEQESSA
Summed up: (§1)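 Cells bearing the mutant calcitonin receptor were plated overnight, then stimulated with increasing ligand concentrations for 60 min in the presence of LiCl. Endogenous IP1 was read by HTRF after lysis.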

For a further experiment, the target named is T2, hCTR L291A (Homo sapiens, UniProt P30988, L291A).
T2 construct: expressed in transfected cells
T2 sequence (P30988 25-474 L291A): T1 sequence (P30988 25-474 E294A) with L267A, A270E
The procedure, abridged: as §1

The target of the next experiment is T3, hCTR I371A (Homo sapiens, UniProt P30988, I371A).
T3 construct: c-Myc (N); expressed in transfected cells
T3 sequence (P30988 25-474 I371A): T1 sequence (P30988 25-474 E294A) with A270E, I347A
The procedure, abridged: as §1

The target in another experiment is T4, hCTR H296A (Homo sapiens, UniProt P30988, H296A).
T4 construct: c-Myc (N); expressed in transfected cells
T4 sequence (P30988 25-474 H296A): T1 sequence (P30988 25-474 E294A) with A270E, H272A
Summed up:
as §1

The target of a further experiment is T5, hCTR R281A (Homo sapiens, UniProt P30988, R281A).
T5 construct: expressed in transfected cells
T5 sequence (P30988 25-474 R281A): T1 sequence (P30988 25-474 E294A) with R257A, A270E
Summed up:
as §1

Where [1] appears, read: IP1, CV1-FlpIn cells, 60 min, LiCl.

These results are taken from article PMC5908784, “Extracellular loops 2 and 3 of the calcitonin receptor selectively modify agonist binding and efficacy” (Biochemical Pharmacology, 2018).

The Emax is the size of the effect at its maximum, as opposed to the concentration needed. The EC50 is the concentration needed to bring the measured effect to its halfway point. A higher EC50 goes with a need for much substance.

Each structure is given as a SMILES string. Where a chain is given by its changes, count along the chain named. Where a SMILES comes first, the peptide text is derived from it. Bridges are numbered along the chain shown (N, C = ends).

As to `CC(C)C[C@H](NC(=O)[C@H](CCCCN)NC(=O)CNC(=O)[C@H](CC(C)C)NC(=O)[C@@H](NC(=O)[C@@H]1CSSC[C@H](N)C(=O)N[C@@H](CO)C(=O)N[C@@H](CC(N)=O)C(=O)N[C@@H](CC(C)C)C(=O)N[C@@H](CO)C(=O)N[C@@H]([C@@H](C)O)C(=O)N1)C(C)C)C(=O)N[C@@H](CO)C(=O)N[C@@H](CCC(N)=O)C(=O)N[C@@H](CCC(=O)O)C(=O)N[C@@H](CC(C)C)C(=O)N[C@@H](Cc1c[nH]cn1)C(=O)N[C@@H](CCCCN)C(=O)N[C@@H](CC(C)C)C(=O)N[C@@H](CCC(N)=O)C(=O)N[C@H](C(=O)N[C@@H](Cc1ccc(O)cc1)C(=O)N1CCC[C@H]1C(=O)N[C@@H](CCCNC(=N)N)C(=O)N[C@H](C(=O)N[C@@H](CC(N)=O)C(=O)N[C@H](C(=O)NCC(=O)N[C@@H](CO)C(=O)NCC(=O)N[C@H](C(=O)N1CCC[C@H]1C(N)=O)[C@@H](C)O)[C@@H](C)O)[C@@H](C)O)[C@@H](C)O` [sCT], the Emax on hCTR E294A was determined as 84 ± 5%; on hCTR L291A it was 85 ± 4%; at hCTR I371A, 31 ± 14%; at hCTR H296A, 101 ± 5%; on hCTR R281A, 91 ± 6%.
On to `CSCC[C@H](NC(=O)CNC(=O)[C@H](CO)NC(=O)[C@H](Cc1ccccc1)NC(=O)[C@H](CCCNC(=N)N)NC(=O)[C@H](Cc1c[nH]cn1)NC(=O)[C@H](Cc1ccccc1)NC(=O)[C@H](CC(N)=O)NC(=O)[C@H](CC(N)=O)NC(=O)[C@H](CC(C)C)NC(=O)[C@H](CC(N)=O)NC(=O)[C@H](CCCNC(=N)N)NC(=O)[C@H](Cc1c[nH]c2ccccc12)NC(=O)[C@H](Cc1ccc(O)cc1)NC(=O)[C@H](C)NC(=O)[C@H](CO)NC(=O)[C@H](CC(C)C)NC(=O)[C@@H](NC(=O)[C@@H]1CSSC[C@H](N)C(=O)N[C@@H](CO)C(=O)N[C@@H](CC(N)=O)C(=O)N[C@@H](CC(C)C)C(=O)N[C@@H](CO)C(=O)N[C@@H]([C@@H](C)O)C(=O)N1)C(C)C)C(=O)NCC(=O)N[C@@H](Cc1ccccc1)C(=O)NCC(=O)N1CCC[C@H]1C(=O)N[C@@H](CCC(=O)O)C(=O)N[C@H](C(=O)N1CCC[C@H]1C(N)=O)[C@@H](C)O` [pCT] (H-CSNLSTCVLSAYWRNLNNFHRFSGMGFGPETP-NH2; disulfide 1-7), for which the concentration for a half-maximal effect (EC50) on hCTR E294A (setting [1]) was 1.29 nM; at hCTR L291A (setting [1]), 1.62 nM; on hCTR I371A (setting [1]), 4.17 nM; at hCTR H296A (setting [1]), 4.47 nM; at hCTR R281A (setting [1]), 2.24 nM. Further, the maximal effect (Emax) is 119 ± 8% on hCTR E294A; 67 ± 6% on hCTR L291A; 61 ± 6% at hCTR I371A; 101 ± 7% on hCTR H296A; 52 ± 4% on hCTR R281A.
As to `CC[C@H](C)[C@H](NC(=O)[C@H](C)NC(=O)[C@@H](NC(=O)[C@H](CCC(N)=O)NC(=O)[C@@H]1CCCN1C(=O)[C@H](Cc1ccccc1)NC(=O)[C@@H](NC(=O)[C@H](Cc1c[nH]cn1)NC(=O)[C@H](Cc1ccccc1)NC(=O)[C@H](CCCCN)NC(=O)[C@H](CC(N)=O)NC(=O)[C@H](Cc1ccccc1)NC(=O)[C@H](CC(=O)O)NC(=O)[C@H](CCC(N)=O)NC(=O)[C@@H](NC(=O)[C@H](Cc1ccc(O)cc1)NC(=O)[C@@H](NC(=O)CNC(=O)[C@H](CC(C)C)NC(=O)[C@H](CCSC)NC(=O)[C@@H]1CSSC[C@H](N)C(=O)NCC(=O)N[C@@H](CC(N)=O)C(=O)N[C@@H](CC(C)C)C(=O)N[C@@H](CO)C(=O)N[C@@H]([C@@H](C)O)C(=O)N1)[C@@H](C)O)[C@@H](C)O)[C@@H](C)O)[C@@H](C)O)C(=O)NCC(=O)N[C@H](C(=O)NCC(=O)N[C@@H](C)C(=O)N1CCC[C@H]1C(N)=O)C(C)C` [hCT], the Emax amounted to 57 ± 6% at hCTR E294A; 71 ± 16% at hCTR L291A; 42 ± 3% at hCTR I371A; 73 ± 6% on hCTR H296A; 30 ± 4% at hCTR R281A.
